Reference: US20220125765A1, “PHARMACEUTICAL COMBINATIONS COMPRISING MEBENDAZOLE AND A STRONG OR MODERATE CYP1A2 INHIBITOR” (ZEPHAPHARM LTD, priority 2019, published 2022)
Where two headings read alike, the source gives them in different places.

Experiments:
[1] = test system: OVXF 899L; test: 2D monolayer CellTiter-Blue viability, ovarian cancer OVXF 899L (P-gp expressing, multidrug resistant); assay type: cell-based; conditions: for Test/Control (%) at Drug Concentration: 72 h; for IC50: OVXF 899L
Protocol: (§1) Mebendazole was tested in vitro across a panel of 12 tumor cell lines of ovarian and renal cancer by using a 2D monolayer assay. […] OVXF 899L and RXF 486L are P-gp expressing, multidrug resistant cell lines.
(§2) Anti-tumor activity is expressed as absolute and relative IC50/70 values, calculated by 4-parameter non-linear curve fit.

[2] = test system: RXF 2282L; test: 2D monolayer CellTiter-Blue viability, renal cancer RXF 2282L; assay type: cell-based; conditions: for Test/Control (%) at Drug Concentration: 72 h
Protocol: as §1, §2

[3] = target: CYP2C19 (Homo sapiens, UniProt P33261); test: Cytochrome P450 reaction phenotyping, recombinant CYP2C19 (Bactosomes); conditions: for Compound Remaining (% of 0 min): CYP2C19, 5 μM
Protocol: Incubations were also performed using control Bactosomes™ (no P450 enzymes present) to reveal any non-enzymatic degradation. Control compounds known to be metabolised specifically by each P450 isoform were included. All incubations were performed singularly for each test compound.
Incubations were also performed using control Bactosomes™ (no P450 enzymes present) to reveal any non-enzymatic degradation. Control compounds known to be metabolised specifically by each P450 isoform were included. All incubations were performed singularly for each test compound. […] The reactions were stopped by transferring an aliquot of incubate to quench solvent at the appropriate time points, in a 1:3 ratio. The termination plates were centrifuged at 3,000 rpm for 20 min at 4° C. to precipitate the protein.

[4] = test system: 786-O; test: 2D monolayer CellTiter-Blue viability, renal cancer 786-O; assay type: cell-based; conditions: for IC50: Homo sapiens, 786-0, 72 h
Protocol: as §1, §2

[5] = test system: RXF 1781L; test: 2D monolayer CellTiter-Blue viability, renal cancer RXF 1781L; assay type: cell-based; conditions: 72 h
Protocol: as §1, §2

Chain of CYP2C19 (P33261 whole entry, canonical isoform): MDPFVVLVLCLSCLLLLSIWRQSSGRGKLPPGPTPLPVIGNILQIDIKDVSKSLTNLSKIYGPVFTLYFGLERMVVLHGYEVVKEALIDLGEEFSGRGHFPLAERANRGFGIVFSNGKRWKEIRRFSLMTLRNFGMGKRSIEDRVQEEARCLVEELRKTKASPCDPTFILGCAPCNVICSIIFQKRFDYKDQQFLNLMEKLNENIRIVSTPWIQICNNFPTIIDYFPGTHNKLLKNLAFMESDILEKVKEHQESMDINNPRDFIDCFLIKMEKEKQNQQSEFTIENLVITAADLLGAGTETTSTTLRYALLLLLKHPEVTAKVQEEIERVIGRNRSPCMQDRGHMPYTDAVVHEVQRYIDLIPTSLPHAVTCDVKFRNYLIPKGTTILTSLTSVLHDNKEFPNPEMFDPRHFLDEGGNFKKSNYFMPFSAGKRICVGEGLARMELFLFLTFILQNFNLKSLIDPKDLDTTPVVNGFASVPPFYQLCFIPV

- IC50 ([1]; OVXF 899, 72 h, read-out: Abs. IC50): > 3200 nM
- IC50 ([1]; OVXF 899, 72 h, read-out: Rel. IC50): 401 nM
- IC50 ([2]; RXF 2282, 72 h, read-out: Abs. IC50): > 3.2 µM
- IC50 ([2]; RXF 2282, 72 h, read-out: Rel. IC50): > 3.2 µM
- Compound Remaining (% of 0 min) ([3]; 0 min): 100 % of 0 min
- Compound Remaining (% of 0 min) ([3]; 5 min): 92.6 % of 0 min
- Compound Remaining (% of 0 min) ([3]; 15 min): 82.1 % of 0 min
- Compound Remaining (% of 0 min) ([3]; 30 min): 76.3 % of 0 min
- Compound Remaining (% of 0 min) ([3]; 45 min): 70.5 % of 0 min
- half-life at 5 μM ([3]; human, recombinant CYP2C19 (Bactosomes), pH 7.4): 93 min
- IC50 ([4]; read-out: Abs. IC50): 470 nM
- IC50 ([4]; read-out: Rel. IC50): 457 nM
Compound: COC(=O)Nc1nc2ccc(C(=O)c3ccccc3)cc2[nH]1 [Mebendazole, methyl N-(6-benzoyl-1H-benzimidazol-2-yl)carbamate]
- Test/Control (%) at Drug Concentration ([1]; OVXF 899, 1.0E+00 μM): 54%
- Test/Control (%) at Drug Concentration ([1]; OVXF 899, 1.0E−01 μM): 92%
- Test/Control (%) at Drug Concentration ([1]; OVXF 899, 1.0E−02 μM): 97%
- Test/Control (%) at Drug Concentration ([1]; OVXF 899, 1.0E−03 μM): 100%
- Test/Control (%) at Drug Concentration ([1]; OVXF 899, 1.0E−04 μM): 88%
- Test/Control (%) at Drug Concentration ([1]; OVXF 899, 3.2E+00 μM): 65%
- Test/Control (%) at Drug Concentration ([1]; OVXF 899, 3.2E−01 μM): 94%
- Test/Control (%) at Drug Concentration ([1]; OVXF 899, 3.2E−02 μM): 94%
- Test/Control (%) at Drug Concentration ([1]; OVXF 899, 3.2E−03 μM): 97%
- Test/Control (%) at Drug Concentration ([1]; OVXF 899, 3.2E−04 μM): 98%
- Abs. IC70 ([1]; OVXF 899, 72 h): >3.200 µM
- Rel. IC70 ([1]; OVXF 899, 72 h): 0.425 µM
- Bot. (%) ([1]; OVXF 899, 72 h, curve fit): 57%
- Top (%) ([1]; OVXF 899, 72 h, curve fit): 95%
- Test/Control (%) at Drug Concentration ([2]; RXF 2282, 1.0E+00 μM): 71%
- Test/Control (%) at Drug Concentration ([2]; RXF 2282, 1.0E−01 μM): 83%
- Test/Control (%) at Drug Concentration ([2]; RXF 2282, 1.0E−02 μM): 84%
- Test/Control (%) at Drug Concentration ([2]; RXF 2282, 1.0E−03 μM): 88%
- Test/Control (%) at Drug Concentration ([2]; RXF 2282, 1.0E−04 μM): 108%
- Test/Control (%) at Drug Concentration ([2]; RXF 2282, 3.2E+00 μM): 57%
- Test/Control (%) at Drug Concentration ([2]; RXF 2282, 3.2E−01 μM): 77%
- Test/Control (%) at Drug Concentration ([2]; RXF 2282, 3.2E−02 μM): 86%
- Test/Control (%) at Drug Concentration ([2]; RXF 2282, 3.2E−03 μM): 89%
- Test/Control (%) at Drug Concentration ([2]; RXF 2282, 3.2E−04 μM): 92%
- Abs. IC70 ([2]; RXF 2282, 72 h): >3.200 µM
- Rel. IC70 ([2]; RXF 2282, 72 h): >3.200 µM
- Bot. (%) ([2]; RXF 2282, 72 h, curve fit): 0%
- Top (%) ([2]; RXF 2282, 72 h, curve fit): 102%
- Test/Control (%) at Drug Concentration ([4]; 1.0E+00 μM, 72 h): 20%
- Test/Control (%) at Drug Concentration ([4]; 1.0E−01 μM, 72 h): 95%
- Test/Control (%) at Drug Concentration ([4]; 1.0E−02 μM, 72 h): 87%
- Test/Control (%) at Drug Concentration ([4]; 1.0E−03 μM, 72 h): 98%
- Test/Control (%) at Drug Concentration ([4]; 1.0E−04 μM, 72 h): 107%
- Test/Control (%) at Drug Concentration ([4]; 3.2E+00 μM, 72 h): 9%
- Test/Control (%) at Drug Concentration ([4]; 3.2E−01 μM, 72 h): 69%
- Test/Control (%) at Drug Concentration ([4]; 3.2E−02 μM, 72 h): 88%
- Test/Control (%) at Drug Concentration ([4]; 3.2E−03 μM, 72 h): 97%
- Test/Control (%) at Drug Concentration ([4]; 3.2E−04 μM, 72 h): 87%
- Abs. IC70 ([4]; 72 h): 0.712 µM
- Rel. IC70 ([4]; 72 h): 0.640 µM
- Bot. (%) ([4]; 72 h, curve fit): 9%
- Top (%) ([4]; 72 h, curve fit): 94%
- Test/Control (%) at Drug Concentration ([5]; RXF 1781, 1.0E+00 μM): 25%
- Test/Control (%) at Drug Concentration ([5]; RXF 1781, 1.0E−01 μM): 91%
- Test/Control (%) at Drug Concentration ([5]; RXF 1781, 1.0E−02 μM): 92%
